From PubChem BioAssay (NCI)
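48-hour exposure; five concentrations; linearly interpolated endpoints. The concentration for full growth arrest is given as TGI.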

Experiments:
Test in all cases: NCI anticancer screen, dose series, 48 h
LOX IMVI melanoma = tested on: LOX IMVI melanoma
ACHN renal = tested on: ACHN renal
SNB-75 CNS = tested on: SNB-75 CNS
NCI-H226 lung = tested on: NCI-H226 lung
KM12 colon = tested on: KM12 colon
HT29 colon = tested on: HT29 colon
NCI-H23 lung = tested on: NCI-H23 lung
K-562 leukemia = tested on: K-562 leukemia
HCT-15 colon = tested on: HCT-15 colon
SNB-19 CNS = tested on: SNB-19 CNS
NCI-H460 lung = tested on: NCI-H460 lung
NCI/ADR-RES ovarian = tested on: NCI/ADR-RES ovarian
BT-549 breast = tested on: BT-549 breast
OVCAR-3 ovarian = tested on: OVCAR-3 ovarian
DU-145 prostate = tested on: DU-145 prostate
HOP-92 NSCLC = tested on: HOP-92 NSCLC
UO-31 renal = tested on: UO-31 renal
HCT-116 colon = tested on: HCT-116 colon
SR leukemia = tested on: SR leukemia
SF-539 CNS = tested on: SF-539 CNS
MALME-3M melanoma = tested on: MALME-3M melanoma
MDA-N = tested on: MDA-N
M14 melanoma = tested on: M14 melanoma
OVCAR-8 ovarian = tested on: OVCAR-8 ovarian
PC-3 prostate = tested on: PC-3 prostate
TK-10 renal = tested on: TK-10 renal
RXF 393 renal = tested on: RXF 393 renal
OVCAR-5 ovarian = tested on: OVCAR-5 ovarian
CCRF-CEM leukemia = tested on: CCRF-CEM leukemia
MDA-MB-231 breast = tested on: MDA-MB-231 breast
IGROV1 ovarian = tested on: IGROV1 ovarian
HL-60(TB) leukemia = tested on: HL-60(TB) leukemia
EKVX NSCLC = tested on: EKVX NSCLC
U251 CNS = tested on: U251 CNS
SK-OV-3 ovarian = tested on: SK-OV-3 ovarian
UACC-62 melanoma = tested on: UACC-62 melanoma
A549 NSCLC = tested on: A549 NSCLC
SF-295 CNS = tested on: SF-295 CNS
SF-268 CNS = tested on: SF-268 CNS
COLO 205 colon = tested on: COLO 205 colon
SN12C renal = tested on: SN12C renal
HCC-2998 colon = tested on: HCC-2998 colon
MDA-MB-435 = tested on: MDA-MB-435
RPMI-8226 leukemia = tested on: RPMI-8226 leukemia
T-47D breast = tested on: T-47D breast
SK-MEL-5 melanoma = tested on: SK-MEL-5 melanoma
A498 renal = tested on: A498 renal
CAKI-1 renal = tested on: CAKI-1 renal
HS 578T breast = tested on: HS 578T breast
MOLT-4 leukemia = tested on: MOLT-4 leukemia
UACC-257 melanoma = tested on: UACC-257 melanoma
786-0 renal = tested on: 786-0 renal
MCF7 breast = tested on: MCF7 breast
NCI-H522 lung = tested on: NCI-H522 lung
SW-620 colon = tested on: SW-620 colon
SK-MEL-28 melanoma = tested on: SK-MEL-28 melanoma
SK-MEL-2 melanoma = tested on: SK-MEL-2 melanoma
OVCAR-4 ovarian = tested on: OVCAR-4 ovarian

With `CC(=O)OC(OC(C)=O)c1ccc2ccc3cccc4ccc1c2c34` the TGI (LOX IMVI melanoma) was 36 µM, the TGI (ACHN renal) was 65.8 µM and the TGI (SNB-75 CNS) was 41.6 µM. The TGI (NCI-H226 lung) was 8.43 µM, the TGI (KM12 colon) was > 100 µM and the TGI (HT29 colon) was 38.3 µM. For the same compound, the TGI (NCI-H23 lung) was 45.1 µM, the TGI (K-562 leukemia) was 96.2 µM and the TGI (HCT-15 colon) was > 100 µM. For the same compound, the TGI (SNB-19 CNS) was 98.7 µM, the TGI (NCI-H460 lung) was 39.6 µM and the TGI (NCI/ADR-RES ovarian) was > 100 µM. The TGI (BT-549 breast) was 53.6 µM, the TGI (OVCAR-3 ovarian) was > 100 µM and the TGI (DU-145 prostate) was 45.8 µM. It also gave a TGI (HOP-92 NSCLC) of 42.3 µM, a TGI (UO-31 renal) of 44.6 µM and a TGI (HCT-116 colon) of 52.4 µM. For the same compound, the TGI (SR leukemia) was > 100 µM, the TGI (SF-539 CNS) was > 100 µM and the TGI (MALME-3M melanoma) was 54.7 µM. The TGI (MDA-N) was 36.9 µM, the TGI (M14 melanoma) was 61 µM and the TGI (OVCAR-8 ovarian) was > 100 µM. For the same compound, the TGI (PC-3 prostate) was 65.6 µM, the TGI (TK-10 renal) was 21.4 µM and the TGI (RXF 393 renal) was 25.3 µM. For the same compound, the TGI (OVCAR-5 ovarian) was 41.8 µM, the TGI (CCRF-CEM leukemia) was > 100 µM and the TGI (MDA-MB-231 breast) was 84.1 µM. For the same compound, the TGI (IGROV1 ovarian) was 54.1 µM, the TGI (HL-60(TB) leukemia) was > 100 µM and the TGI (EKVX NSCLC) was 80.6 µM. The TGI (U251 CNS) was 41.8 µM, the TGI (SK-OV-3 ovarian) was 53.4 µM and the TGI (UACC-62 melanoma) was 27.3 µM. For the same compound, the TGI (A549 NSCLC) was > 100 µM, the TGI (SF-295 CNS) was 37.5 µM and the TGI (SF-268 CNS) was 91.7 µM. The TGI (COLO 205 colon) was 58.4 µM, the TGI (SN12C renal) was > 100 µM and the TGI (HCC-2998 colon) was 24.5 µM. For the same compound, the TGI (MDA-MB-435) was 37.9 µM, the TGI (RPMI-8226 leukemia) was > 100 µM and the TGI (T-47D breast) was 68 µM. For the same compound, the TGI (SK-MEL-5 melanoma) was 32.8 µM, the TGI (A498 renal) was 3.74 µM and the TGI (CAKI-1 renal) was 32.5 µM. For the same compound, the TGI (HS 578T breast) was 36.8 µM, the TGI (MOLT-4 leukemia) was > 100 µM and the TGI (UACC-257 melanoma) was 34.5 µM. The TGI (786-0 renal) was > 100 µM and the TGI (MCF7 breast) was 79.1 µM.

In the case of `CN=C(n1ccnc1)n1ccnc1`, the TGI (LOX IMVI melanoma) is reported as > 100 µM, the TGI (SNB-75 CNS) is reported as > 100 µM and the TGI (NCI-H226 lung) is reported as > 100 µM. For the same compound, the TGI (KM12 colon) was > 100 µM, the TGI (HT29 colon) was > 100 µM and the TGI (NCI-H23 lung) was > 100 µM. For the same compound, the TGI (NCI-H522 lung) was > 100 µM, the TGI (K-562 leukemia) was > 100 µM and the TGI (HCT-15 colon) was > 100 µM. For the same compound, the TGI (SNB-19 CNS) was > 100 µM, the TGI (NCI-H460 lung) was > 100 µM and the TGI (NCI/ADR-RES ovarian) was > 100 µM. For the same compound, the TGI (BT-549 breast) was > 100 µM, the TGI (OVCAR-3 ovarian) was > 100 µM and the TGI (DU-145 prostate) was > 100 µM. The TGI (SW-620 colon) was > 100 µM, the TGI (UO-31 renal) was > 100 µM and the TGI (HCT-116 colon) was > 100 µM. The TGI (SR leukemia) was > 100 µM, the TGI (SF-539 CNS) was > 100 µM and the TGI (MALME-3M melanoma) was > 100 µM. For the same compound, the TGI (MDA-N) was > 100 µM, the TGI (M14 melanoma) was > 100 µM and the TGI (OVCAR-8 ovarian) was > 100 µM. The TGI (PC-3 prostate) was > 100 µM, the TGI (TK-10 renal) was > 100 µM and the TGI (RXF 393 renal) was > 100 µM. The TGI (OVCAR-5 ovarian) was > 100 µM, the TGI (CCRF-CEM leukemia) was > 100 µM and the TGI (MDA-MB-231 breast) was > 100 µM. For the same compound, the TGI (IGROV1 ovarian) was > 100 µM, the TGI (HL-60(TB) leukemia) was > 100 µM and the TGI (EKVX NSCLC) was > 100 µM. For the same compound, the TGI (U251 CNS) was > 100 µM, the TGI (SK-OV-3 ovarian) was > 100 µM and the TGI (UACC-62 melanoma) was > 100 µM. For the same compound, the TGI (SK-MEL-28 melanoma) was > 100 µM, the TGI (A549 NSCLC) was > 100 µM and the TGI (SK-MEL-2 melanoma) was > 100 µM. For the same compound, the TGI (SF-268 CNS) was > 100 µM, the TGI (COLO 205 colon) was > 100 µM and the TGI (SN12C renal) was > 100 µM. The TGI (HCC-2998 colon) was > 100 µM, the TGI (MDA-MB-435) was > 100 µM and the TGI (RPMI-8226 leukemia) was > 100 µM. The TGI (T-47D breast) was > 100 µM, the TGI (SK-MEL-5 melanoma) was > 100 µM and the TGI (A498 renal) was > 100 µM. For the same compound, the TGI (CAKI-1 renal) was > 100 µM, the TGI (HS 578T breast) was > 100 µM and the TGI (MOLT-4 leukemia) was > 100 µM. The TGI (UACC-257 melanoma) was > 100 µM, the TGI (OVCAR-4 ovarian) was > 100 µM and the TGI (786-0 renal) was > 100 µM. For the same compound, the TGI (MCF7 breast) was > 100 µM.
